Experimental data as given in ChEMBL document CHEMBL5096185, “Structure-Guided Development of Small-Molecule PRC2 Inhibitors Targeting EZH2-EED Interaction” (J Med Chem, 2021).
Calls of active or inactive are those of the source. The rule behind the calls is not given here.

Key:
[1] = Inhibition of FITC-labeled EZH2 (40 to 63 residues) (unknown origin)-recombinant N-terminal 6His-SUMO tagged human EED (81 to 441 residues) expressed in Escherichia coli BL21 (DE3) cells protein-protein interaction incubated for 2 hrs by fluorescence polarization competition assay
Polycomb protein EED [2] = molecular target: T1, Polycomb protein EED (Homo sapiens, UniProt O75530); assay: Binding affinity to recombinant N-terminal 6His-SUMO tagged human EED (81 to 441 residues) expressed in Escherichia coli BL21 (DE3) cells assessed as dissociation constant measured after 240 sec by SPR-based binding assay
Target sequence in this assay (O75530 whole entry, the tested form may be a part): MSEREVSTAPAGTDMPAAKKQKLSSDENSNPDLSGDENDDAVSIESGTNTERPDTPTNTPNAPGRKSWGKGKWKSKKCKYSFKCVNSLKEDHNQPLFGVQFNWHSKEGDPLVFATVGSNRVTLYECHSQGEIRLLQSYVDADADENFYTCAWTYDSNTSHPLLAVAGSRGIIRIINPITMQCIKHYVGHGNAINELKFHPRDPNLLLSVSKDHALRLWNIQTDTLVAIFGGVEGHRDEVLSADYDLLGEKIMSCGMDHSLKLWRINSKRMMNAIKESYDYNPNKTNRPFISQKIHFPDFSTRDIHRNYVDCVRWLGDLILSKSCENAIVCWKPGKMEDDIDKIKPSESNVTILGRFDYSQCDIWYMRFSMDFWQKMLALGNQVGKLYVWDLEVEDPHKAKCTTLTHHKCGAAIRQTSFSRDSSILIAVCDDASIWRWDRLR

Polycomb protein EED [3] = molecular target: T1, Polycomb protein EED; assay: Binding affinity to recombinant N-terminal 6His-SUMO tagged human EED (81 to 441 residues) expressed in Escherichia coli BL21 (DE3) cells assessed as binding constant (Kon) measured after 120 sec by SPR-based binding assay
Target sequence in this assay (O75530 2-441 limits assumed): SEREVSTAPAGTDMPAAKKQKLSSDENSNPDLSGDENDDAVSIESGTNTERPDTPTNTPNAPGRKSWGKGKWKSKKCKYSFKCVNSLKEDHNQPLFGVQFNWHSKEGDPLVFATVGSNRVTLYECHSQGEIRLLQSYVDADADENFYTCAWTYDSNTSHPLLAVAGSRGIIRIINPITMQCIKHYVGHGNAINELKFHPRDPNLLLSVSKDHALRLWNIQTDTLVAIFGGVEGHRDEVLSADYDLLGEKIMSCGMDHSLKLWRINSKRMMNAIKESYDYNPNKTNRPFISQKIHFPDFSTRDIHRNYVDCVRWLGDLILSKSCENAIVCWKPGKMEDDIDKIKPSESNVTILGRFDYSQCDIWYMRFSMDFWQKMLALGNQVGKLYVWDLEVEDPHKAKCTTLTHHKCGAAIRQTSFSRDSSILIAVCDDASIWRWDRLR

Polycomb protein EED [4] = molecular target: T1, Polycomb protein EED; assay: Binding affinity to recombinant N-terminal 6His-SUMO tagged human EED (81 to 441 residues) expressed in Escherichia coli BL21 (DE3) cells assessed as binding constant (Koff) measured after 120 sec by SPR-based binding assay
Target sequence in this assay (O75530 2-441 limits assumed): as above

Homo sapiens = organism: Homo sapiens; assay: Binding affinity to EZH2 (39 to 68 residues) (unknown origin)/recombinant N-terminal 6His-SUMO tagged human EED (81 to 441 residues) expressed in Escherichia coli BL21 (DE3) cells assessed as T1rho signal recovery at 50 to 100 uM by NMR-based binding assay; conditions: dose 50-100 µM
Pfeiffer [5] = assay: Inhibition of PRC2 in human Pfeiffer cells assessed as reduction in EZH2 protein level measured after 72 hrs by Western blot analysis; assay type: cell-based; conditions: dose 0.6-10 µM, DDE = dose-dependent effect
Pfeiffer [6] = assay: Inhibition of PRC2 in human Pfeiffer cells assessed as reduction in EED protein level measured after 72 hrs by Western blot analysis; assay type: cell-based; conditions: dose 0.6-10 µM, DDE = dose-dependent effect
Pfeiffer [7] = assay: Inhibition of PRC2 in human Pfeiffer cells assessed as reduction in SUZ12 protein level measured after 72 hrs by Western blot analysis; assay type: cell-based; conditions: dose 0.6-10 µM, DDE = dose-dependent effect
Pfeiffer [8] = assay: Inhibition of PRC2 in human Pfeiffer cells assessed as reduction in H3K27me3 level measured after 72 hrs by Western blot analysis; assay type: cell-based; conditions: dose 0.6-10 µM, DDE = dose-dependent effect
Pfeiffer [9] = assay: Antiproliferative activity against human Pfeiffer cells assessed as inhibition of cell growth incubated for 72 hrs by CellTiter-Glo assay; assay type: functional, cell-based
KARPAS-422 = assay: Antiproliferative activity against human KARPAS-422 cells assessed as inhibition of cell growth incubated for 72 hrs by CellTiter-Glo assay; assay type: functional, cell-based; conditions: KARPAS-422, 72 h
SUD4 [10] = assay: Antiproliferative activity against human SU-DHL-4 cells assessed as inhibition of cell growth incubated for 72 hrs by CellTiter-Glo assay; assay type: functional, cell-based; conditions: SU-DHL-4, 72 h
DB = assay: Antiproliferative activity against human DB cells assessed as inhibition of cell growth incubated for 72 hrs by CellTiter-Glo assay; assay type: functional, cell-based
Pfeiffer [11] = assay: Induction of cell cycle arrest in human Pfeiffer cells assessed as accumulation of cells in G0/G1 phase at 5 uM incubated for 2 days by PI/RNase staining based analysis (reference value: 52.3%); assay type: functional; conditions: time 2 day
SUD4 [12] = assay: Induction of cell cycle arrest in human SU-DHL-4 cells assessed as accumulation of cells in G0/G1 phase at 5 uM incubated for 3 days by PI/RNase staining based analysis (reference value: 62.2 %); assay type: functional; conditions: time 3 day
Pfeiffer [13] = assay: Induction of cell cycle arrest in human Pfeiffer cells assessed as decrease of cells in G2/M phase at 5 uM incubated for 2 days by PI/RNase staining based analysis (reference value: 14.9 %); assay type: functional; design: scale not given: the % may be the effect or the level left; conditions: time 2 day
Pfeiffer [14] = assay: Induction of cell cycle arrest in human Pfeiffer cells assessed as decrease of cells in S phase at 5 uM incubated for 2 days by PI/RNase staining based analysis (reference value: 32.8 %); assay type: functional; design: scale not given: the % may be the effect or the level left; conditions: time 2 day
SUD4 [15] = assay: Induction of cell cycle arrest in human SU-DHL-4 cells assessed as decrease of cells in G2/M phase at 5 uM incubated for 3 days by PI/RNase staining based analysis (reference value: 8.6 %); assay type: functional; design: scale not given: the % may be the effect or the level left; conditions: time 3 day
SUD4 [16] = assay: Induction of cell cycle arrest in human SU-DHL-4 cells assessed as decrease of cells in G2/M phase at 5 uM incubated for 3 days by PI/RNase staining based analysis (reference value: 29.2 %); assay type: functional; design: scale not given: the % may be the effect or the level left; conditions: time 3 day

Compound	IC50 [1]	other results
COc1ccc(CNc2ccc(Nc3nc4ccccc4n3Cc3ccc(F)cc3)cc2)cc1	33.8 µM	
COc1ccc(CCN2CCC(Nc3nc4c(N)cccc4n3Cc3ccc(F)cc3)CC2)cc1	48.6 µM	
COc1ccc(CCN2CC[C@H](Nc3nc4ccccc4n3Cc3ccc(F)cc3)C2)cc1	4.56 µM	
COc1ccc(CCN2CCC(Nc3nc4ccccc4n3Cc3ccc(F)c(F)c3)CC2)cc1	56.5 µM	
COc1ccc(CCN2CCC(Nc3nc4ccc(N)cc4n3Cc3ccc(F)cc3)CC2)cc1	64.7 µM	
COc1ccc(CCN2CCC(Nc3nc4ccccc4n3Cc3ccc([N+](=O)[O-])cc3)CC2)cc1	66.3 µM	
Cc1ccc(CCN2CCC(Nc3nc4ccccc4n3Cc3ccc(F)cc3)CC2)cc1	87.6 µM	
COc1ccc(CNc2ccc(Nc3nc4ccccc4n3Cc3ccc(F)cc3)cn2)cc1	32.5 µM	
O=[N+]([O-])c1cccc(CCN2CCC(Nc3nc4ccccc4n3Cc3ccc(F)cc3)CC2)c1	341 µM	
COc1ccc(CCN2CCC(Nc3nc4ccccc4n3Cc3ccc(F)cc3)C2)cc1 (centres undefined)		Kd (Polycomb protein EED [2]): 4.56 µM; K (Polycomb protein EED [3]): 4500 M⁻¹ s⁻¹; K (Polycomb protein EED [4]): 0.0205 s⁻¹; Activity (Homo sapiens): Active; inhibition (Pfeiffer [5]): Dde; inhibition (Pfeiffer [6]): Dde; inhibition (Pfeiffer [7]): Dde; inhibition (Pfeiffer [8]): Dde; IC50 (Pfeiffer [9]): 3.77 µM; IC50 (KARPAS-422): 5.97 µM; IC50 (SUD4 [10]): 5.87 µM; IC50 (DB): 9.62 µM; Activity (Pfeiffer [11]): 76.2%; Activity (SUD4 [12]): 84%; Activity (Pfeiffer [13]): 6.2%; Activity (Pfeiffer [14]): 17.6%; Activity (SUD4 [15]): 0%; Activity (SUD4 [16]): 16%
COc1ccc(CCN2CCC(Nc3nc4ccccc4n3Cc3ccc(F)cc3[N+](=O)[O-])CC2)cc1	80.1 µM	
COc1ccc(CCN2CCC(Nc3nc4cccc(N)c4n3Cc3ccc(F)cc3)CC2)cc1	73.8 µM	
COc1ccc(CN[C@H]2CC[C@H](Nc3nc4ccccc4n3Cc3ccc(F)cc3)CC2)cc1	78.7 µM	
Oc1cccc(CCN2CCC(Nc3nc4ccccc4n3Cc3ccc(F)cc3)CC2)c1	61.5 µM	

Further lines, with some results ahead:

IC50 [1]	Compound	other results
60.8 µM	COc1ccc(CCN2CCC(Nc3nc4ccccc4n3Cc3ccc(C(F)(F)F)cc3)CC2)cc1	
175 µM	Oc1ccccc1CCN1CCC(Nc2nc3ccccc3n2Cc2ccc(F)cc2)CC1	
131 µM	COc1ccc(CCN2CCC(Nc3nc4ccccc4n3Cc3ccccc3)CC2)cc1	
> 500 µM	COc1ccc(CN[C@H]2CC[C@@H](Nc3nc4ccccc4n3Cc3ccc(F)cc3)CC2)cc1	
63.6 µM	COc1ccc(CCN2CCC(Nc3nc4cc(N)ccc4n3Cc3ccc(F)cc3)CC2)cc1	
21.5 µM	COc1ccc(CCN2CC(Nc3nc4ccccc4n3Cc3ccc(F)cc3)C2)cc1	
153 µM	COc1ccc(CCN2CCC(Nc3nc4ccccc4n3Cc3ccc(C)cc3)CC2)cc1	
221 µM	COc1ccc(CCN2CCC(Nc3nc4ccccc4n3Cc3ccc(N)cc3)CC2)cc1	
11.6 µM	COc1ccc(CCNCCNc2nc3ccccc3n2Cc2ccc(F)cc2)cc1	
464 µM	COc1ccc(CCNCCCNc2nc3ccccc3n2Cc2ccc(F)cc2)cc1	
74.2 µM	COc1ccc(CCN2CCC(Nc3nc4ccccc4n3Cc3ccc(F)cc3)CC2)cc1 [ASTEMIZOLE]	
61.6 µM	COc1ccc(CCN2CCC(Nc3nc4ccccc4n3Cc3ccc(F)c([N+](=O)[O-])c3)CC2)cc1	
190 µM	Oc1ccc(CCN2CCC(Nc3nc4ccccc4n3Cc3ccc(F)cc3)CC2)cc1 [DESMETHEYLASTEMIZOLE]	
